Assay results published in US20050172344A1, “Cell cultures from animal models of Alzheimer's disease for screening and testing drug efficacy” (priority 2002, published 2005).

Experiments:
Assay type in all cases: cell-based, mouse
[1] = system: cultured murine hippocampal neurons; experiment: evoked EPSCs and tetanus-induced potentiation in cultured neurons; conditions: for effect on EPSC amplitude (in words): evoked EPSCs, FIG. 2B
[2] = system: cultured hippocampal neurons from WT mice; experiment: basal mEPSC frequency (spontaneous neurotransmitter release), whole cell patch clamp, WT cultures
[3] = system: cultured hippocampal neurons from WT mice; experiment: glutamate-induced increase of mEPSC frequency, WT cultures
[4] = system: cultured hippocampal neurons from WT mice; experiment: FM 1-43 vesicle cycling: number of active presynaptic boutons, WT cultures
From the text: Cationic styrylpyridinium dye FM 1-43 has become an established tool for identifying actively firing neurons and for investigating the mechanisms of activity-dependent vesicle cycling in widely different species. These water soluble dyes, which are non-toxic to cells virtually nonfluorescent in aqueous medium, become internalized within recycled synaptic vesicles and the nerve terminals become brightly stained. The amount of FM 1-43 taken up per vesicle by endocytosis equals the amount of dye released upon exocytosis.
One of the methods to induce exocytosis/endocytosis in the neuronal culture is by perfusion of the hyperkalemic solution. […] The perfusion solution is then changed back to normal bath solution for 10 minutes to wash off the dye from the external medium. ADVASEP-7 (1 mM, CyDex, Inc., Overland Park, Kans.), an anionic cyclodextrin complexing agent is introduced for 60 seconds in the washing bath solution at 1 and 6 minutes of washing for enhanced removal of the dye from the external medium (FIG. 6A). After 10 min wash period, which is sufficient for the complete recycling and repriming of the dye-stained population of synaptic vesicles, an image was then taken to record the loading of FM 1-43 in the synaptic boutons. The culture is then exposed to multiple 15 seconds application of hyperkalemic bath solution (without FM 1-43) to evoke repeated cycles of exocytosis, which facilitate release of the dye from the vesicles. An image is taken after 30 minutes of repeated cycles of exocytosis and washing with normal bath solution. The difference between the images before and after multiple exposures to hyperkalemic solution gives the measure of FM 1-43 stained vesicles.
To study glutamate-induced presynaptic plasticity changes, the culture is exposed to glutamate (200 μM) in Mg^2+ free bath solution for 30 seconds and then washed out in approximately 1 minute. After 30 minutes of glutamate exposure, the staining and destaining procedure is repeated. NMDA receptor antagonist, d-AP5 (40 μM) and non-NMDA receptor antagonist, CNQX (20 μM) are included in the hyperkalemic solution to block possible recurrent excitation and induction of activity-dependent plasticity. All images were acquired using Nikon D-Eclipse C1 confocal microscope. Cultures were viewed with 60×/1.2 nA water immersion objective. An investigator blinded to experimental conditions obtained quantitative data using NIH Image (v. 1.61). For each image, the intensity of individual puncta and total number of puncta was assessed. FIG. 6B illustrates exemplary cycling vesicles before and after glutamate exposure in cell cultures from wild type (WT) and mAPP/mPS1 littermates. A brief application of glutamate produces enhancement of cycling vesicles in WT but not mAPP/mPS1 cell cultures (FIG. 6C).
Another finding on cell cultures from transgenic mouse models of Alzheimer's disease is represented by the increase in basal number of functional presynaptic release sites as well as the lack of the glutamate-induced increase in number of functional presynaptic release sites. These tests were performed using FM 1-43. Therefore, we also tested whether these phenomena occurred in non transgenic cultures following exposure to exogenous oligomeric Aβ. […] Brief application (˜30 sec) of 200 μM glutamate in Mg^2+ free medium caused a significant increase in number of active boutons in cultures from vehicle-treated WT animals (269.70±33.12%, n=6, p<0.001, one way ANOVA) ) (FIG. 12B). […]

[5] = system: cultured hippocampal neurons from WT mice; experiment: immunocytochemistry: synapsin I- and synaptophysin-immunoreactive puncta, WT cultures
Experimental: Glutamate in Mg^2+-free bath solution, or normal bath solution (control) was added directly to the culture dish and washed out after approximately 1 min by exchanging the solution with phosphate-buffered saline (PBS), (pH 7.4) 2 times. The cultures were fixed starting approximately 30 min after the application of glutamate, or control solution. The cultures were incubated overnight with affinity-purified rabbit anti-synapsin I (Molecular Probes) diluted 1:200. The secondary antibody was goat anti-rabbit labeled with Rhodamin Red diluted 1:500 in 4% goat serum in PBS. Cells were mounted in Vectashield (Vector Labs) and examined by confocal microscope (Nikon D-Eclipse C1). The cells were excited using the 568 nm lines of a krypton-argon laser to image Cy3. Kalman averages of 4 scans were collected for each image. Ten neurons in each culture dish were selected at random and analyzed by an observer who was blind to the experimental treatment. Fields with roughly equal densities of neurites were chosen for analysis. Synapsin I clusters in a representative field (94×142 μm) around the neuron were quantified using a computer program NIH Image (v. 1.61). Individual clusters were identified based on having a fluorescence intensity that exceeded a threshold set above background and a diameter between 0.5 and 5 μm. For all measures, the mean result from the 10 neurons in the dish was normalized to the mean from control dishes in the same culture batch because variability between different culture batches was greater than between dishes in the same batch. FIG. 7 illustrates the effects of glutamate on the number of synapsin I-immunoreactive clusters in WT and mAPP/mPS1 cell cultures. Synapsin I-immunoreactive clusters are more numerous in glutamate-exposed than control cell WT cultures (FIGS. 7A, 7B).
In light of the microstructural changes involving synapsin I and synaptophysin in cultures from transgenic animals, we also tested whether these changes could be induced by the exogenous application of Aβ. […] We next tested whether the number of synapsin I- and synaptophysin-immunoreactive puncta was increased after glutamate application in Aβ-treated cultures. […] These findings indicate that Aβ can produce coordinate changes in the distribution and/or expression of presynaptic proteins.
Aβ preparation: Oligomeric Aβ42 was prepared as previously described (Stine et al., 2003). Briefly, the lyophilized peptide (American Peptide) was re-suspended in 100% 1,1,1,3,3,3-hexafluoro-2-propanol (HFIP; Sigma). The solution was aliquoted and the HFIP was allowed to evaporate in the fume hood. The resulting clear peptide films were dried under vacuum in a SpeedVac and stored at −20° C. Twenty-four hours prior to use, the aliquots were added dimethylsulfoxide (DMSO) (Sigma) and sonicated for 10 minutes. Oligomeric Aβ42 was obtained by diluting Aβ42-DMSO into cell culture media, vortexed for 30 seconds and incubated at 4° C. for 24 hours until the use. To induce plasticity 200 μM glutamate in a Mg^2+-free solution was added for ˜30 sec.

[6] = system: cultured hippocampal neurons from double transgenic mAPP/mPS1 mice; experiment: basal mEPSC frequency (spontaneous neurotransmitter release), whole cell patch clamp, mAPP/mPS1 cultures
[7] = system: cultured hippocampal neurons from double transgenic mAPP/mPS1 mice; experiment: glutamate-induced enhancement of mEPSC frequency (synaptic plasticity), mAPP/mPS1 cultures
[8] = Aβ42-treated cultures fixed 30 minutes after 200 μM glutamate application
[9] = WT cultures, 200 pM oligomeric Aβ42 for 24 hours vs vehicle-treated

N[C@@H](CCCP(=O)(O)O)C(=O)O [APV]
effect on potentiation of EPSC by high frequency stimulation (in words) ([1]; 100 Hz tetani, extracellular application, FIG. 2C): blocked | effect on EPSC amplitude (in words) [1]: reduces the amplitude of the EPSCs

N#Cc1cc2[nH]c(=O)c(=O)[nH]c2cc1[N+](=O)[O-] [CNQX]
effect on EPSC amplitude (in words) [1]: blocks the remaining part of the EPSC

oligomeric Aβ42: lyophilized β-amyloid 42 peptide (American Peptide) treated with HFIP and DMSO, then diluted into culture media to form oligomers
effect on basal frequency of spontaneous release of neurotransmitter (in words) ([2]; FIG. 11A): increases | mEPSC amplitude vs vehicle-treated cultures (in words) ([2]; WT cultures, 200 pM oligomeric Aβ42 for 24 hours): did not find any difference | basal frequency of spontaneous release of neurotransmitter ([2]; WT cultures, 200 pM oligomeric Aβ42 for 24 hours, n=8): 671.46 ± 48.28 min⁻¹ | effect on glutamate-induced mEPSC frequency increase (in words) ([3]; FIG. 11B): blocks | mEPSC frequency after glutamate ([3]; WT cultures, 200 pM Aβ42 for 24 hours, 45 min after 200 μM glutamate, n=10): 104.43±3.05 % of pre values | basal mEPSC frequency with vehicle added instead of glutamate ([3]; WT cultures, Aβ-treated, vehicle instead of glutamate, n=8): 112.00±11.34 % of pre values | mEPSC amplitude after glutamate treatment (in words) ([3]; cultures treated with Aβ): did not produce any change | mean fluorescence intensity of the labeled boutons (in words) ([4]; Aβ-treated cultures): did not find any change | number of active boutons after glutamate ([4]; Aβ-treated cultures, ~30 sec 200 μM glutamate in Mg2+ free medium, n=8): 86.80±4.6 % increase | effect on basal number of active presynaptic boutons (in words) ([4]; FIG. 12A): increases | effect on glutamate-induced increase in the number of active boutons (in words) ([4]; FIG. 12B): blocks | basal number of active boutons ([4]; WT cultures treated for 24 hrs with Aβ42, n=15): 38.15±3.6 boutons/unit length of neurite | number of synapsin I-immunoreactive puncta after glutamate [5, 8]: 111.55±8.97% | number of synaptophysin-immunoreactive puncta after glutamate [5, 8]: 115.48±5.76% | effect on basal number of synapsin I- and synaptophysin-immunoreactive puncta (in words) ([5]; FIG. 13A): increases | effect on glutamate-induced increase in synapsin I- and synaptophysin-immunoreactive puncta (in words) ([5]; FIG. 13B): blocks | basal number of synapsin I immunoreactive puncta [5, 9]: 1155.53±6.78 % of control | basal number of synaptophysin immunoreactive puncta [5, 9]: 146.13±6.15%

CC(C)C[C@H](NC(=O)[C@H]1O[C@@H]1C(=O)O)C(=O)NCCCCN=C(N)N [E64]
basal mEPSC frequency ([2]; WT cultures treated with E64 1 μM added daily): 332 events/minute | basal mEPSC frequency ([6]; mAPP/mPS1 cultures treated with E64 1 μM added daily to culture medium): 435 events/minute | effect on basal mEPSC frequency (in words) ([6]; mAPP/mPS1 cultures, E64 for 3 to 4 days, FIG. 4): re-established normal mEPSC frequency | mEPSC frequency after glutamate (synaptic plasticity) ([7]; mAPP/mPS1 cultures treated with E64, 45 minutes after application of glutamate, n=6): 346.44±41% | effect on synaptic plasticity (in words) ([7]; mAPP/mPS1 cultures, glutamate-induced mEPSC enhancement, FIG. 5): re-established normal synaptic plasticity
